Data published in US20030031647A1, “IFN-alpha and amantadine for treating hepatitis C” (priority 1997, published 2003).

Legend:
PBMC = PBMC viability, proliferation and cytotoxicity (non-isotopic cell-proliferation and cytotoxicity assays); assay type: cell-based, human; conditions: for PBMC proliferation: PBMC from healthy donors
Protocol: (§1) PBMC were isolated from heparinized venous blood by Ficoll-Hypaque gradient sedimentation. The interphase PBMC were isolated, washed twice with phosphate-buffered saline, and suspended in RPMI. The viability of these cells was assessed by trypan blue exclusion. PBMC were cultured in duplicate at a concentration of 2×10^6 viable cells/ml in 6-well tissue culture dusters, in a humid atmosphere with 5% CO2 for 7 days. The cultures have been maintained without mitogens (medium alone) or were stimulated with single mitogens (Phytohemagglutinin (PHA) or Lipopolysaccharide (LPS) or with PHA plus LPS (10 μg/ml each)(Martin et al., Cytokine 8, 313-317 (1996)). PBMC proliferation, and the possible drug-induced cytotoxicity, were measured using non-isotopic cell-proliferation and cytotoxicity assays.

Hepatitis C Virus = experiment: HCV RNA in cultured PBMC from chronic hepatitis C patients (RT-PCR, AMPLICOR HCV MONITOR assay); assay type: cell-based, Hepatitis C virus (subtype 1b prevalent) in human PBMC; conditions: for Number of cases with HCV RNA Negative / Number of cases with reduction in HCV RNA concentration >25% / Number of cases with reduction in HCV RNA concentration >50% / Number of cases with reduction in HCV RNA concentration >75%: IFN-α2A 0 IU/ml, PBMC, n = 15
Protocol: Antiviral Effect of Amantadine and IFN-α2A Against Hepatitis C Virus on Peripheral Blood Mononuclear Cells (PBMC) from Chronic Hepatitis C Patients
Mononuclear cells from patients with chronic hepatitis C (serum anti-HCV and HCV RNA positive with histologically proven chronic hepatitis) were analyzed for the presence of HCV RNA, using reverse transcription and PCR techniques with universal primers from the highly conserved 5′ non-coding region of the HCV genome (Navas et al., J. Hepatol. 21, 182-186 (1994)). Typing and subtyping of HCV genomes were performed by RFLP analysis of PCR products (Navas et al., J. Clin. Microbiol. 21, 317-321(1997)). For the purpose of this study, only cases infected by a single genotype have been considered, in order to minimize the possible interference of multiple genotypes, in the subject population, HCV subtype 1b was prevalent (Pernas et al., J. Gen. Virol. 76, 415-420(1995)). Thus, HCV RNA-positive PBMC obtained from 15 patients have been analyzed in vitro for the effects of treatment. PBMC from 10 matched healthy donors have been used as controls and analyzed similarly.
as §1
The effect of experimental treatments with amantadine alone, in combination with IFN-α2A and those of IFN-α2A alone, have been established by testing HCV RNA in cultured mononuclear cells, compared with untreated PBMC from patients (Martin et al., supra); specificity controls were as described previously by Navas et al. in J. Hepatol. 21, 182-186 (1994). Treatment of mononuclear cells form healthy donors with amantadine alone, in combination with IFN-α2A or with IFN-α2A alone, served as controls. Changes in HCV RNA concentrations were measured by the AMPLICOR™ HCV MONITOR assay (Roche Diagnostic System, Inc., Branchburg).

[1] = amantadine 1-5 μM, cultured PBMC from HCV patients and healthy donors

With `NC12CC3CC(CC(C3)C1)C2` [Amantadine, tricyclo[3.3.1.1^3,7]decane-1-amine] as the compound, how does the PBMC proliferation (PBMC; amantadine 50 μM) read?
Its PBMC proliferation is “slightly decreased PBMC proliferation”.

What about the PBMC proliferation (PBMC; amantadine 500 μM) of the same compound?
Its PBMC proliferation is “marked anti-proliferative effect”.

And the cell viability (PBMC; [1])?
The cell viability was “did not affect the cell viability”.

What about the response to mitogens (PBMC; [1]) of the same compound?
The response to mitogens was “minor effects on the response to mitogens”.

And the “PBMC cultures in which HCV RNA became negative” value (Hepatitis C Virus; 2 μM amantadine, 1/15 patients)?
The value was 7%.

And the “PBMC cultures in which HCV RNA became negative” value (Hepatitis C Virus; 5 μM amantadine, 3/15 patients)?
The value was 20%.

What about the “Number of cases with HCV RNA Negative” value (Hepatitis C Virus; Amantadine 1 μM) of the same compound?
The value was 0.

And the “Number of cases with reduction in HCV RNA concentration >25%” value (Hepatitis C Virus; Amantadine 1 μM)?
Its value is 3.

What about the “Number of cases with reduction in HCV RNA concentration >50%” value (Hepatitis C Virus; Amantadine 1 μM) of the same compound?
The value was 2.

And the “Number of cases with reduction in HCV RNA concentration >75%” value (Hepatitis C Virus; Amantadine 1 μM)?
Its value is 3.

What about the “Number of cases with HCV RNA Negative” value (Hepatitis C Virus; Amantadine 2 μM) of the same compound?
Its value is 1.

What about the “Number of cases with reduction in HCV RNA concentration >25%” value (Hepatitis C Virus; Amantadine 2 μM) of the same compound?
Its value is 5.

What about the “Number of cases with reduction in HCV RNA concentration >50%” value (Hepatitis C Virus; Amantadine 2 μM) of the same compound?
The value was 2.

What about the “Number of cases with reduction in HCV RNA concentration >75%” value (Hepatitis C Virus; Amantadine 2 μM) of the same compound?
The value was 4.

What about the “Number of cases with HCV RNA Negative” value (Hepatitis C Virus; Amantadine 5 μM) of the same compound?
Its value is 3.

And the “Number of cases with reduction in HCV RNA concentration >25%” value (Hepatitis C Virus; Amantadine 5 μM)?
Its value is 2.

And the “Number of cases with reduction in HCV RNA concentration >50%” value (Hepatitis C Virus; Amantadine 5 μM)?
Its value is 2.

And the “Number of cases with reduction in HCV RNA concentration >75%” value (Hepatitis C Virus; Amantadine 5 μM)?
The value was 3.
